Results from ChEMBL document CHEMBL4813920, “Metronidazole-conjugates: A comprehensive review of recent developments towards synthesis and medicinal perspective” (Eur J Med Chem, 2021).
In brackets after ≈: the same amount, converted by molar mass.

Assays:
[1] = Selectivity index, ratio of CC50 for African green monkey Vero cells to IC50 for antigiardial activity against Giardia intestinalis MSS:0696:1; assay type: toxicity; settings: read-out: Ratio CC50/IC50
[2] = Cytotoxicity against African green monkey Vero cells incubated for 48 hrs by sulforhodamine B method; assay type: cell-based; settings: chlorocebus sabaeus
Giardia intestinalis = assay: Antigiardial activity against Giardia intestinalis MSS:0696:1 incubated for 48 hrs; assay type: functional, organism-based; settings: Giardia duodenalis, MSS:0696:1, 48 h
Trichomonas vaginalis = assay: Anti-trichomonas activity against Trichomonas vaginalis GT3 incubated for 48 hrs; assay type: functional, organism-based; settings: GT3, 48 h
[3] = Selectivity index, ratio of CC50 for African green monkey Vero cells to IC50 for antigiardial activity against Trichomonas vaginalis GT3; assay type: toxicity; settings: read-out: Ratio CC50/IC50
NCI-H446 = assay: Anticancer activity against human NCI-H446 cells assessed as inhibition of cell proliferation at 0.5 uM measured after 48 hrs by CCK8 assay relative to control; assay type: functional
A549 [4] = assay: Anticancer activity against human A549 cells assessed as inhibition of cell proliferation at 0.5 uM measured after 48 hrs by CCK8 assay relative to control; assay type: functional
[5] = Acute oral toxicity in mouse assessed as behavioral changes measured once daily for 14 days; settings: in vivo, time 14 day
Bacillus spizizenii [6] = assay: Antibacterial activity against Bacillus subtilis ATCC 6633 incubated for 24 hrs by two fold serial dilution method; assay type: functional
Escherichia coli [7] = assay: Antibacterial activity against Escherichia coli ATCC 35218 incubated for 24 hrs by two fold serial dilution method; assay type: functional
[8] = Acute oral toxicity in mouse assessed as signs of gross toxicity measured once daily for 14 days; settings: in vivo, time 14 day
Staphylococcus aureus [9] = assay: Antibacterial activity against Staphylococcus aureus ATCC 6538 incubated for 24 hrs by two fold serial dilution method; assay type: functional
[10] = Inhibition of Escherichia coli N-terminal His-tagged FabH expressed in Escherichia coli BL21(DE3) by liquid scintillation counting method
[11] = Acute oral toxicity in mouse assessed as induction of mortality measured once daily for 14 days; settings: in vivo, time 14 day
Pseudomonas aeruginosa [12] = assay: Antibacterial activity against Pseudomonas aeruginosa ATCC 13525 incubated for 24 hrs by two fold serial dilution method; assay type: functional
[13] = tested on: Human immunodeficiency virus 1; assay: Antiviral activity against HIV1 3B infected in human MT4 cells assessed as reduction in virus-induced cell death incubated for 5 days by MTT assay; assay type: functional, organism-based; settings: Human immunodeficiency virus 1, 3B, MT4, 120 h
[14] = Selectivity index, ratio of CC50 for cytotoxicity against human MT4 cells to EC50 for antiviral activity against HIV1 3B infected in human MT4 cells; assay type: toxicity, cell-based; settings: read-out: Ratio CC50/EC50
[15] = Cytotoxicity against human MT4 cells assessed as reduction in cell viability after 5 days by MTT assay; assay type: cell-based; settings: time 5 day
Helicobacter pylori [16] = assay: Antimicrobial activity against Helicobacter pylori clinical isolate8 for 3 days by agar dilution method; assay type: functional; settings: clinical isolate8, 72 h, time 3 day
Helicobacter pylori [17] = assay: Potency index, ratio of MIC for metronidazole to test compound for Helicobacter pylori ATCC 43504 incubated for 3 days by agar dilution method; assay type: functional, NCTC 11637 = CCUG 17874 = ATCC 43504; settings: time 3 day
Helicobacter pylori [18] = assay: Potency index, ratio of MIC for metronidazole to test compound for Helicobacter pylori clinical isolate2 for 3 days by agar dilution method; assay type: functional; settings: time 3 day
Helicobacter pylori [19] = assay: Antimicrobial activity against Helicobacter pylori SS1 clinical isolate2 for 3 days by agar dilution method; assay type: functional; settings: SS1 clinical isolate2, 72 h, time 3 day
Helicobacter pylori [20] = assay: Potency index, ratio of MIC for metronidazole to test compound for Helicobacter pylori SS1 incubated for 3 days by agar dilution method; assay type: functional; settings: time 3 day
Helicobacter pylori [21] = assay: Potency index, ratio of MIC for metronidazole to test compound for Helicobacter pylori clinical isolate8 for 3 days by agar dilution method; assay type: functional; settings: time 3 day
Helicobacter pylori [22] = assay: Potency index, ratio of MIC for metronidazole to test compound for Helicobacter pylori clinical isolate3 for 3 days by agar dilution method; assay type: functional; settings: time 3 day
Helicobacter pylori [23] = assay: Antimicrobial activity against Helicobacter pylori SS1 incubated for 3 days by agar dilution method; assay type: functional; settings: SS1, 72 h, time 3 day
Helicobacter pylori [24] = assay: Antimicrobial activity against Helicobacter pylori clinical isolate3 for 3 days by agar dilution method; assay type: functional; settings: clinical isolate3, 72 h, time 3 day
Helicobacter pylori [25] = assay: Antimicrobial activity against Helicobacter pylori ATCC 43504 incubated for 3 days by agar dilution method; assay type: functional; settings: NCTC 11637 = CCUG 17874 = ATCC 43504, 72 h, time 3 day
Proteus vulgaris [26] = assay: Potency index, ratio of Chloromycin MIC to test compound MIC for antibacterial activity against Proteus vulgaris by two-fold serial dilution technique; assay type: functional
Cyberlindnera jadinii = assay: Antifungal activity against Candida utilis by two-fold serial dilution technique; assay type: functional; settings: Williopsis jadinii
Staphylococcus aureus [27] = assay: Antibacterial activity against Methicillin-resistant Staphylococcus aureus N315 by two-fold serial dilution technique; assay type: functional
Proteus vulgaris [28] = assay: Antibacterial activity against Proteus vulgaris by two-fold serial dilution technique; assay type: functional
Saccharomyces cerevisiae = assay: Antifungal activity against Beer yeast by two-fold serial dilution technique; assay type: functional
Proteus vulgaris [29] = assay: Potency index, ratio of Metronidazole MIC to test compound MIC for antibacterial activity against Proteus vulgaris by two-fold serial dilution technique; assay type: functional
Proteus vulgaris [30] = assay: Potency index, ratio of Norfloxacin MIC to test compound MIC for antibacterial activity against Proteus vulgaris by two-fold serial dilution technique; assay type: functional
Shigella dysenteriae = assay: Antibacterial activity against Shigella dysenteriae by two-fold serial dilution technique; assay type: functional
Escherichia coli [31] = assay: Antibacterial activity against Escherichia coli DH52 by two-fold serial dilution technique; assay type: functional
Helicobacter pylori [32] = assay: Antibacterial activity against Helicobacter pylori P12 incubated for 48 hrs by MTT assay; assay type: functional, organism-based
Helicobacter pylori [33] = assay: Antibacterial activity against Helicobacter pylori ATCC 26695 incubated for 48 hrs by MTT assay; assay type: functional, organism-based
Clostridium perfringens = assay: Antibacterial activity against Clostridium perfringens ATCC 13124 incubated for 48 hrs under anaerobic condition by MTT assay; assay type: functional
Pseudomonas aeruginosa [34] = assay: Antibacterial activity against Pseudomonas aeruginosa ATCC 13525 by MH media dilution method; assay type: functional
Bacillus spizizenii [35] = assay: Antibacterial activity against Bacillus subtilis ATCC 6633 by MH media dilution method; assay type: functional
Escherichia coli [36] = assay: Antibacterial activity against Escherichia coli ATCC 35218 by MH media dilution method; assay type: functional
[37] = Inhibition of Staphylococcus aureus TyrRS using L-tyrosine and tRNA as substrate preincubated for 10 mins followed by substrate addition by liquid scintillation counting method
Staphylococcus aureus [38] = assay: Antibacterial activity against Staphylococcus aureus ATCC 6538 by MH media dilution method; assay type: functional
HepG2 = assay: Antiproliferative activity against human HepG2 cells incubated for 24 to 48 hrs by CCK8 assay; assay type: functional, cell-based
A549 [39] = assay: Antiproliferative activity against human A549 cells incubated for 24 to 48 hrs by CCK8 assay; assay type: functional, cell-based
[40] = biological target: Telomerase reverse transcriptase (Homo sapiens, UniProt O14746); assay: Inhibition of telomerase in human SGC-7901 cell extract by TRAP assay
U-251 = assay: Antiproliferative activity against human U-251 cells incubated for 24 to 48 hrs by CCK8 assay; assay type: functional, cell-based
HeLa = assay: Antiproliferative activity against human Hela cells incubated for 24 to 48 hrs by CCK8 assay; assay type: functional, cell-based
B16-F10 = assay: Antiproliferative activity against mouse B16-F10 cells incubated for 24 to 48 hrs by MTT assay; assay type: functional, cell-based
MCF7 = assay: cells; settings: Homo sapiens, MCF7, 24 h
MDA-MB-231 = assay: Antiproliferative activity against human MDA-MB-231 cells after 24 hrs by MTT assay; assay type: functional, cell-based; settings: MDA-MB-231, 24 h
HEK293 = assay: Cytotoxicity against HEK293 cells after 24 hrs by MTT assay; assay type: cell-based; settings: Homo sapiens, HEK293, 24 h

Chain of Telomerase reverse transcriptase (O14746 whole entry): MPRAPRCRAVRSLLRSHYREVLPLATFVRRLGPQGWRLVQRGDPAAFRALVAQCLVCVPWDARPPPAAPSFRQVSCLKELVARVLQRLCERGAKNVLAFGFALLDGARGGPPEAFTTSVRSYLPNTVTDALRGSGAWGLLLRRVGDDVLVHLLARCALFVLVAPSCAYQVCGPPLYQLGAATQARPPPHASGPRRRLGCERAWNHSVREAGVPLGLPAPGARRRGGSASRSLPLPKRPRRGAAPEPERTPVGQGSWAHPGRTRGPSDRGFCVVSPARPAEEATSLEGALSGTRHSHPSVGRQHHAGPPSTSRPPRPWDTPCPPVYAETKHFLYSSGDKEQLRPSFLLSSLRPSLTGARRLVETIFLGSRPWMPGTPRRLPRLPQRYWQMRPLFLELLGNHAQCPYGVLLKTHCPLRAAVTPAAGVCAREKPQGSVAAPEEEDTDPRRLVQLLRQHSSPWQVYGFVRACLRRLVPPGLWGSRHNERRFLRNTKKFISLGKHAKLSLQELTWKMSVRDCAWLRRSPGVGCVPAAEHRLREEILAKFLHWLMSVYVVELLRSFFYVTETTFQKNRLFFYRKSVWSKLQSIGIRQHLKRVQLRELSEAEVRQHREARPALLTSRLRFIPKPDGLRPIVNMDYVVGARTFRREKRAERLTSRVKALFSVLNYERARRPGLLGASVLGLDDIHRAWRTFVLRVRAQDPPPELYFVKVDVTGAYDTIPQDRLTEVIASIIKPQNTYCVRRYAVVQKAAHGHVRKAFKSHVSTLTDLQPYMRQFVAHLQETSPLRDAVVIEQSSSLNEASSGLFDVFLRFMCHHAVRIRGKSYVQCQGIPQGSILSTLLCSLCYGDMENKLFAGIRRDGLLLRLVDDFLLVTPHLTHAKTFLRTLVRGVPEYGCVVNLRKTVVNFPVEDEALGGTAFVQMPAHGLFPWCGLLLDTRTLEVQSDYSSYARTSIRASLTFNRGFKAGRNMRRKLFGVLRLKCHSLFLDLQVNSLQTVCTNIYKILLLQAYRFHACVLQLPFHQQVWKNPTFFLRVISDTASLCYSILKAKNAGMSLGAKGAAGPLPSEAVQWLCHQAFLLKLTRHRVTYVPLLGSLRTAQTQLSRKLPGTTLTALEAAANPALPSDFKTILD

For Cc1ncc([N+](=O)[O-])n1CCOC(=O)Nc1ccc([N+](=O)[O-])cc1, the selectivity ratio [1] was > 116, the CC50 at 48 h [2] was > 100 µM and the IC50 (Giardia intestinalis) was 0.86 µM. For the same compound, the IC50 (Trichomonas vaginalis) was 9.99 µM and the selectivity ratio [3] was > 10.
With COc1cc2c(Nc3ccc(Br)cc3F)ncnc2cc1OCC1CCN(C(=O)Cn2cncc2[N+](=O)[O-])CC1 the inhibition at 0.5 µM (NCI-H446) was 59.9% and the inhibition at 0.5 µM (A549 [4]) was 62%.
With Cc1ncc([N+](=O)[O-])n1CCOC(=O)Nc1ccccc1 the selectivity ratio [1] was > 102, the CC50 at 48 h [2] was > 100 µM and the IC50 (Giardia intestinalis) was 0.98 µM. It also gave an IC50 (Trichomonas vaginalis) of 0.09 µM and a selectivity ratio [3] of 1110.
With Cc1ncc([N+](=O)[O-])n1CCOC(=O)NC1CCCCC1 the selectivity ratio [1] was > 217, the CC50 at 48 h [2] was > 100 µM and the IC50 (Giardia intestinalis) was 0.46 µM. For the same compound, the IC50 (Trichomonas vaginalis) was 0.06 µM and the selectivity ratio [3] was 1670.
In the case of Cc1ncc([N+](=O)[O-])n1CC(C)OC(=O)c1ccc(/C=N/c2ccc(S(=O)(=O)NC(=N)N)cc2)cc1 (centres undefined), the LD50 at 336 h [5] is reported as > 5000 mg/kg, the MIC (Bacillus spizizenii [6]) is reported as 3.13 µg/mL (≈ 6.09 µM) and the MIC (Escherichia coli [7]) is reported as 3.13 µg/mL (≈ 6.09 µM). The LD50 at 336 h [8] was > 5000 mg/kg, the MIC (Staphylococcus aureus [9]) was 12.5 µg/mL (≈ 24.3 µM) and the IC50 [10] was 4.93 µM. The LD50 at 336 h [11] was > 5000 mg/kg and the MIC (Pseudomonas aeruginosa [12]) was 25 µg/mL (≈ 48.7 µM).
Work on Cc1ncc([N+](=O)[O-])n1CCSc1ccccc1 yielded an EC50 [13] of 2.23 µM, a selectivity ratio [14] of 11 and a CC50 at 120 h [15] of 24.8 µM.
With Cc1ncc([N+](=O)[O-])n1CCOc1cc(O)c2c(=O)c(-c3ccc(O)cc3)coc2c1 the MIC (Helicobacter pylori [16]) was 0.39 µg/mL (≈ 0.921 µM), the Ratio (Helicobacter pylori [17]) was >50 and the Ratio (Helicobacter pylori [18]) was >50. For the same compound, the MIC (Helicobacter pylori [19]) was 0.39 µg/mL (≈ 0.921 µM), the Ratio (Helicobacter pylori [20]) was >50 and the Ratio (Helicobacter pylori [21]) was >50. For the same compound, the Ratio (Helicobacter pylori [22]) was >50, the MIC (Helicobacter pylori [23]) was 0.39 µg/mL (≈ 0.921 µM) and the MIC (Helicobacter pylori [24]) was 0.39 µg/mL (≈ 0.921 µM). For the same compound, the MIC (Helicobacter pylori [25]) was 0.39 µg/mL (≈ 0.921 µM).
For CCNc1ccc2c3c(cccc13)C(=O)N(CC(O)Cn1c([N+](=O)[O-])cnc1C)C2=O (centres undefined), the Ratio (Proteus vulgaris [26]) was 50, the MIC (Cyberlindnera jadinii) was 20 µM (≈ 8.47 µg/mL) and the MIC (Staphylococcus aureus [27]) was 40 µM (≈ 16.9 µg/mL). For the same compound, the MIC (Proteus vulgaris [28]) was 2 µM (≈ 0.847 µg/mL), the MIC (Saccharomyces cerevisiae) was 10 µM (≈ 4.23 µg/mL) and the Ratio (Proteus vulgaris [29]) was 95. It also gave a Ratio (Proteus vulgaris [30]) of 10, an MIC (Shigella dysenteriae) of 10 µM (≈ 4.23 µg/mL) and an MIC (Escherichia coli [31]) of 40 µM (≈ 16.9 µg/mL).
In the case of Cc1ccc(C(C)C)cc1OCCn1c([N+](=O)[O-])cnc1C, the IC50 (Helicobacter pylori [32]) is reported as 0.0011 uM/ml, the IC50 (Helicobacter pylori [33]) is reported as 4.921 uM/ml and the MIC (Clostridium perfringens) is reported as 2.7 µM (≈ 0.819 µg/mL).
In the case of COc1ccc(-c2cc(C(=O)OCCn3c([N+](=O)[O-])cnc3C)nn2-c2ccc(Cl)cc2)cc1, the MIC (Pseudomonas aeruginosa [34]) is reported as 1.96 µg/mL (≈ 4.07 µM), the MIC (Bacillus spizizenii [35]) is reported as 7.82 µg/mL (≈ 16.2 µM) and the MIC (Escherichia coli [36]) is reported as 3.91 µg/mL (≈ 8.11 µM). For the same compound, the IC50 [37] was 1.67 µM and the MIC (Staphylococcus aureus [38]) was 7.82 µg/mL (≈ 16.2 µM).
Compound CN(C)c1ccc(/C=C/c2ncc([N+](=O)[O-])n2CCOC(=O)c2nccc3ccccc23)cc1 has an IC50 (HepG2) of 0.14 µM, an IC50 (A549 [39]) of 0.17 µM and an IC50 [40] of 1.92 µM. It also gave an IC50 (U-251) of 0.43 µM and an IC50 (HeLa) of 0.12 µM.
In the case of Cc1cc(C)nc(NS(=O)(=O)c2ccc(/N=C\c3ccc(OCCn4c([N+](=O)[O-])cnc4C)cc3)cc2)n1, the IC50 (B16-F10) is reported as 0.19 µM.
In the case of Cc1ncc([N+](=O)[O-])n1Cc1cn(CCCCN2C(=O)C(=O)c3cc(Cl)ccc32)nn1, the IC50 (MCF7) is reported as 54.2 µM, the IC50 (MDA-MB-231) is reported as 26.1 µM and the IC50 (HEK293) is reported as > 100 µM.
